The text below walks through data of paper PMC6783924, “Alkaloid Lindoldhamine Inhibits Acid-Sensing Ion Channel 1a and Reveals Anti-Inflammatory Properties” (Toxins, 2019).

This assay addresses T1, acid-sensing ion channel isoform 1a (ASIC1a) (Rattus norvegicus, UniProt P55926).
T1 construct: gene Asic1
T1 sequence (P55926 1-526): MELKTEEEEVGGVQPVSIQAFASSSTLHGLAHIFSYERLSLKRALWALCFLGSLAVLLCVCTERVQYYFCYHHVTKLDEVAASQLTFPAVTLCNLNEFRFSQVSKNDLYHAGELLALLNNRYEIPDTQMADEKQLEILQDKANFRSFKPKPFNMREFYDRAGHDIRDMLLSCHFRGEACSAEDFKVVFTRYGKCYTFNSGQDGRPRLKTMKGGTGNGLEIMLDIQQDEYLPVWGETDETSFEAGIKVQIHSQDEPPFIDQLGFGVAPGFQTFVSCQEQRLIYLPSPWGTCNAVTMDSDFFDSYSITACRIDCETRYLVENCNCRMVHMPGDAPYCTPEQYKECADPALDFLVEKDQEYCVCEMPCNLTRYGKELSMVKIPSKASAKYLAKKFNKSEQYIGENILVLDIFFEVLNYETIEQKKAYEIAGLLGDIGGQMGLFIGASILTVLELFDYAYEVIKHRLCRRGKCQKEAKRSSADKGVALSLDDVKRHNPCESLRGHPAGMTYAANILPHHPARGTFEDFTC
The assay is described as follows: two-electrode voltage clamp, Xenopus laevis oocytes expressing rat ASIC1a, pH […] stimulus from pH […]. The class given is cell-based. The conditions noted are these: read-out: pH 6.85.

For `COc1cc2c(cc1O)C(Cc1ccc(O)c(Oc3ccc(C[C@@H]4NCCc5cc(OC)c(O)cc54)cc3)c1)NCC2` (stereo partly shown) [LIN, lindoldhamine], the IC50 was 9 ± 0.3 µM.
